System: 485176-168-R4-J1-PDC spheroids with HUVEC/MSC, viability
Test: Anticancer human tumor 485176-168-R4-J1-PDC patient-derived pancreatic adenocarcinoma cell line growth inhibition [GQUAD]
Conditions: for IC50: curve of first compound; for viability, T/C: stronger effect = lower value
Method in brief: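 Tumor cells were grown as complex spheroids with HUVEC endothelial cells and mesenchymal stem cells as stroma. G-quadruplex stabilizers were combined with targeted agents over half-log dilutions from near the clinical Cmax, or from 10 microM.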

[1] = second compound 0.0316 µM, first compound 0.0316 µM
[2] = second compound 0.0316 µM, first compound 0.1 µM
[3] = second compound 0.0316 µM, first compound 0.316 µM
[4] = second compound 0.0316 µM, first compound 1 µM
[5] = second compound 0.0316 µM, first compound 3.16 µM
[6] = second compound 0.0316 µM, first compound 10 µM
[7] = second compound 0.1 µM, first compound 0.0316 µM
[8] = second compound 0.1 µM, first compound 0.1 µM
[9] = second compound 0.1 µM, first compound 0.316 µM
[10] = second compound 0.1 µM, first compound 1 µM
[11] = second compound 0.1 µM, first compound 3.16 µM
[12] = second compound 0.1 µM, first compound 10 µM
[13] = second compound 0.316 µM, first compound 0.0316 µM
[14] = second compound 0.316 µM, first compound 0.1 µM
[15] = second compound 0.316 µM, first compound 0.316 µM
[16] = second compound 0.316 µM, first compound 1 µM
[17] = second compound 0.316 µM, first compound 3.16 µM
[18] = second compound 0.316 µM, first compound 10 µM
[19] = second compound 1 µM, first compound 0.0316 µM
[20] = second compound 1 µM, first compound 0.1 µM
[21] = second compound 1 µM, first compound 0.316 µM
[22] = second compound 1 µM, first compound 1 µM
[23] = second compound 1 µM, first compound 3.16 µM
[24] = second compound 1 µM, first compound 10 µM
[25] = second compound 3.16 µM, first compound 0.0316 µM
[26] = second compound 3.16 µM, first compound 0.1 µM
[27] = second compound 3.16 µM, first compound 0.316 µM
[28] = second compound 3.16 µM, first compound 1 µM
[29] = second compound 3.16 µM, first compound 3.16 µM
[30] = second compound 3.16 µM, first compound 10 µM
[31] = second compound 10 µM, first compound 0.0316 µM
[32] = second compound 10 µM, first compound 0.1 µM
[33] = second compound 10 µM, first compound 0.316 µM
[34] = second compound 10 µM, first compound 1 µM
[35] = second compound 10 µM, first compound 3.16 µM
[36] = second compound 10 µM, first compound 10 µM
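Note: spheroids exposed to compounds for seven days before readout.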
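Throughout, for viability, T/C: percent viability relative to DMSO vehicle control wells as 100%.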

## COc1cc(C2c3cc4c(cc3C(OC3OC5COC(C)OC5C(O)C3O)C3COC(=O)C23)OCO4)cc(OC)c1O (stereo unspecified) + Cc1cnc(CNC(=O)c2c(=O)c3ccc(N4CCCN(C)CC4)nc3n3c2sc2ccccc23)cn1
Second compound 0.0316 µM
  IC50: 0.322 µM
Second compound 0.1 µM
  IC50: 0.171 µM
Second compound 0.316 µM
  IC50: 0.123 µM
Second compound 1 µM
  IC50: < 0.0316 µM
Second compound 3.16 µM
  IC50: < 0.0316 µM
Second compound 10 µM
  IC50: < 0.0316 µM
[1]
  viability, T/C: 87.9%
[2]
  viability, T/C: 63.1%
[3]
  viability, T/C: 49.7%
[4]
  viability, T/C: 38.1%
[5]
  viability, T/C: 21%
[6]
  viability, T/C: 8.67%
[7]
  viability, T/C: 65.4%
[8]
  viability, T/C: 55.4%
[9]
  viability, T/C: 40.6%
[10]
  viability, T/C: 36%
[11]
  viability, T/C: 22.3%
[12]
  viability, T/C: 8.6%
[13]
  viability, T/C: 55.6%
[14]
  viability, T/C: 53.6%
[15]
  viability, T/C: 38.2%
[16]
  viability, T/C: 41.3%
[17]
  viability, T/C: 24.3%
[18]
  viability, T/C: 8.95%
[19]
  viability, T/C: 56%
[20]
  viability, T/C: 41.8%
[21]
  viability, T/C: 47.4%
[22]
  viability, T/C: 41.5%
[23]
  viability, T/C: 18.4%
[24]
  viability, T/C: 9.08%
[25]
  viability, T/C: 49.9%
[26]
  viability, T/C: 33.8%
[27]
  viability, T/C: 35.7%
[28]
  viability, T/C: 34.8%
[29]
  viability, T/C: 22.8%
[30]
  viability, T/C: 8.98%
[31]
  viability, T/C: 42.4%
[32]
  viability, T/C: 38.9%
[33]
  viability, T/C: 39.1%
[34]
  viability, T/C: 33.3%
[35]
  viability, T/C: 18.1%
[36]
  viability, T/C: 3.75%

## COc1cccc2c1C(=O)c1c(O)c3c(c(O)c1C2=O)CC(O)(C(=O)CO)CC3OC1CC(N)C(O)C(C)O1 (stereo unspecified) + Cc1cnc(CNC(=O)c2c(=O)c3ccc(N4CCCN(C)CC4)nc3n3c2sc2ccccc23)cn1
Second compound 0.0316 µM
  IC50: 0.398 µM
Second compound 0.1 µM
  IC50: 0.141 µM
Second compound 0.316 µM
  IC50: 0.196 µM
Second compound 1 µM
  IC50: < 0.0316 µM
Second compound 3.16 µM
  IC50: < 0.0316 µM
Second compound 10 µM
  IC50: < 0.0316 µM
[1]
  viability, T/C: 81.3%
[2]
  viability, T/C: 60.9%
[3]
  viability, T/C: 60.5%
[4]
  viability, T/C: 13.4%
[5]
  viability, T/C: 3.49%
[6]
  viability, T/C: 0.42%
[7]
  viability, T/C: 80.5%
[8]
  viability, T/C: 55.9%
[9]
  viability, T/C: 34.5%
[10]
  viability, T/C: 20.1%
[11]
  viability, T/C: 1.67%
[12]
  viability, T/C: 0.88%
[13]
  viability, T/C: 55.8%
[14]
  viability, T/C: 50.8%
[15]
  viability, T/C: 48.7%
[16]
  viability, T/C: 18.6%
[17]
  viability, T/C: 6.39%
[18]
  viability, T/C: 0.16%
[19]
  viability, T/C: 54.5%
[20]
  viability, T/C: 41%
[21]
  viability, T/C: 51.7%
[22]
  viability, T/C: 28.2%
[23]
  viability, T/C: 8.43%
[24]
  viability, T/C: 0.95%
[25]
  viability, T/C: 41.6%
[26]
  viability, T/C: 40.2%
[27]
  viability, T/C: 44.5%
[28]
  viability, T/C: 28.1%
[29]
  viability, T/C: 7.56%
[30]
  viability, T/C: 0.84%
[31]
  viability, T/C: 49.8%
[32]
  viability, T/C: 39.7%
[33]
  viability, T/C: 44.6%
[34]
  viability, T/C: 30.4%
[35]
  viability, T/C: 7.78%
[36]
  viability, T/C: 1.08%

## Nc1ccn(C2OC(CO)C(O)C2(F)F)c(=O)n1 (stereo unspecified) + Cc1cnc(CNC(=O)c2c(=O)c3ccc(N4CCCN(C)CC4)nc3n3c2sc2ccccc23)cn1
Second compound 0.0316 µM
  IC50: 0.0422 µM
Second compound 0.1 µM
  IC50: 0.0331 µM
Second compound 0.316 µM
  IC50: 0.0426 µM
Second compound 1 µM
  IC50: < 0.0316 µM
Second compound 3.16 µM
  IC50: < 0.0316 µM
Second compound 10 µM
  IC50: < 0.0316 µM
[1]
  viability, T/C: 60.9%
[2]
  viability, T/C: 17.7%
[3]
  viability, T/C: 11%
[4]
  viability, T/C: 8.82%
[5]
  viability, T/C: 8.83%
[6]
  viability, T/C: 9.73%
[7]
  viability, T/C: 51.1%
[8]
  viability, T/C: 24.9%
[9]
  viability, T/C: 7.73%
[10]
  viability, T/C: 11.8%
[11]
  viability, T/C: 11.2%
[12]
  viability, T/C: 12.9%
[13]
  viability, T/C: 60.3%
[14]
  viability, T/C: 22%
[15]
  viability, T/C: 10.2%
[16]
  viability, T/C: 10.3%
[17]
  viability, T/C: 11.5%
[18]
  viability, T/C: 11.2%
[19]
  viability, T/C: 40.8%
[20]
  viability, T/C: 19.7%
[21]
  viability, T/C: 11.4%
[22]
  viability, T/C: 11.6%
[23]
  viability, T/C: 12.7%
[24]
  viability, T/C: 11.7%
[25]
  viability, T/C: 43.6%
[26]
  viability, T/C: 20.3%
[27]
  viability, T/C: 11.1%
[28]
  viability, T/C: 9.17%
[29]
  viability, T/C: 12.5%
[30]
  viability, T/C: 12.6%
[31]
  viability, T/C: 37%
[32]
  viability, T/C: 24.6%
[33]
  viability, T/C: 10.4%
[34]
  viability, T/C: 10.4%
[35]
  viability, T/C: 11.1%
[36]
  viability, T/C: 9.2%

From PubChem BioAssay AID2060509 (Molecular Pharmacology Branch, DTP, NCI, 2025)
